Experimental data as given in publication PMC10254306, “Piplartine-Inspired 3,4,5-Trimethoxycinnamates: Trypanocidal, Mechanism of Action, and In Silico Evaluation” (Molecules, 2023).
“And” between values parts separate entries of the source, which are not always exact repeats. Identical values can stand only once.

Columns and labels:
[1] = system: epimastigote form of T. cruzi; parameters: method as in PMID 31775321; details: cited from earlier work
[2] = system: trypomastigote forms of T. cruzi; parameters: method as in PMID 31775321; details: read-out: IC50 trypomastigote form; cited from earlier work
[3] = system: epimastigote forms of T. cruzi, Y strain; assay: Trypanocidal activity on epimastigote forms (growth inhibition, Neubauer chamber count); format: cell-based, Trypanosoma cruzi
Method: (§1) Initially, the prepared esters were submitted to in vitro tests using the microdilution technique in 96-well plates to evaluate the trypanocidal activity against the epimastigote evolutionary form at different concentrations (200–3.12 μg/mL). Then, the compounds with the best activity were tested against the trypomastigote form of T. cruzi. In both assays, IC50 values were calculated; a compound is considered to have trypanocidal activity when IC50 <40 μM [21]. The results are expressed in Table 1.
Initially, epimastigotes were cultured and distributed in 96-well plates at a density of 10^6 cells/mL in liver infusion tryptose medium supplemented with 10% fetal bovine serum (FBS) and 1% antibiotic. Then, the cells were treated with piplartine analogues at different concentrations and incubated at 28 °C for 24 h. To quantify the growth inhibition of the parasites, a Neubauer chamber was used, and the IC50 was defined.

[4] = system: trypomastigote forms of T. cruzi, Y strain; assay: Trypanocidal activity on trypomastigote forms (viability by counting); format: cell-based, Trypanosoma cruzi
Method: as §1
Trypomastigote forms were obtained by infecting LLC-MK2 cells with the parasite; in this way, the cells were incubated for 24 h in T-25/75 cm^2 flasks at 37 °C in an atmosphere with 5% CO2 in DMEM medium supplemented with 2% FBS and 1% antibiotic. Subsequently, the trypomastigote forms were distributed in 96-well plates treated with piplartine analogues at different concentrations (200; 100; 50; 25; 12.5; 6.25; 3.12 μg/mL) and incubated at 37 °C for 24 h. The assessment of cell viability was performed by counting, and the IC50 was defined.

[5] = In vitro cytotoxicity, MTT assay; format: cell-based, Rhesus monkey; details: Rhesus monkey, LLC-MK2 renal epithelial cells; MTT, 24 h; read-out: LLCK-MK2 CC50
Method: (§2) The compounds were considered selective for the parasite when SI ≥ 10 [21]. The results are expressed in Table 2.
(§3) For the cytotoxicity analysis, the (3-[4,5-dimethylthiazol-2-yl]-2,5 diphenyl tetrazolium bromide) (MTT) assay was used, in which the LLC-MK2 cells were cultured in Dulbecco’s Modified Eagle Medium (DMEM), then exposed to the piplartine analogues at different concentrations (25–200 μg/mL) and incubated for 24 h at 37 °C. Then MTT was added, and the cells were incubated for 4 h, after which 10% sodium dodecyl sulfate was added. […] To calculate the relative cell viability, cells treated only with sterile phosphate-buffered saline were used as a negative control. The experiments were conducted in triplicates.

LLC-MK2 cells = assay: In vitro cytotoxicity, MTT assay; format: cell-based, Rhesus monkey
Method: as §2, §3

[6] = system: epimastigote cells of T. cruzi; assay: Cytoplasmic reactive oxygen species, DCFH-DA flow cytometry; format: cell-based, Trypanosoma cruzi; details: 157 and 314 µM, 24 h
Method: To elucidate the mechanism of action of 11, the increase in the concentration of ROS inside epimastigote cells of T. cruzi was evaluated through fluorescent techniques using 2′,7′–dichlorofluorescein diacetate (DCFH-DA). The results are illustrated in Figure 2 and Figure 3.
The DCFH-DA assay was used to evaluate the increase in ROS concentration in the cytoplasm of epimastigote cells treated with 11. Initially, 10^6 epimastigote cells/mL were added to 24-well plates in the presence of 11 (157 μM and 314 µM). After 3 h, 10 µL of a solution of DCFH-DA (20 µM in DMSO) was added. After 24 h, the cells were centrifuged (2800 RPM for 7 min), washed, and resuspended in 500 µL of phosphate buffered saline for flow cytometer analysis. Thus, the level of labeling in each group was analyzed by the geometric mean of the fluorescence intensity, and the results were expressed as relative fluorescence intensity according to the following formula (Equation (1)): (1) Relative fluorescence=mTest/mControl mTEST = geometric mean of the interest group; mCONTROL = geometric mean of the control group.

T. cruzi epimastigotes = assay: Mitochondrial transmembrane potential, rhodamine 123 flow cytometry; format: cell-based, Trypanosoma cruzi; details: 157 and 314 µM, 24 h
Method: In addition, the mitochondrial damage exerted by 11 on the parasite was evaluated through the mitochondrial transmembrane potential assay using the fluorescent dye rhodamine 123 (Rho 123).
Initially, 11 (157 and 314 µM) and epimastigote forms (10^6 cells/mL) were added in 24-well plates. After 24 h, the cells were centrifuged and washed with phosphate-buffered saline. Subsequently, the cells were resuspended in 100 µL of phosphate-buffered saline, and 5 µL of Rho123 solution (10 µg/mL) was added. Thus, the samples were incubated in the dark for 30 min, washed, and resuspended with phosphate-buffered saline (500 µL/tube) for analysis by flow cytometry. Results were evaluated by relative fluorescence intensity, calculated as described above.

[7] = system: epimastigote forms of T. cruzi; assay: Cell death profile, 7-AAD / annexin V-PE labeling; format: cell-based, Trypanosoma cruzi; details: 157 and 314 µM, 24 h
Method: Epimastigote forms were used to analyze the cell death profile through labeling with AxPE and 7-AAD. Initially, the cells were divided into four cell populations: viable cells—with a low level of labeling (7AAD−/AxPE−); necrotic cells—labeled with 7-AAD (7AAD+/AxPE−); apoptotic cells—labeled with annexin V-PE (7AAD−/AxPE+); and cells in late apoptosis—doubly labeled (7AAD+/AxPE+).
The cells were treated with 11 for 24 h at concentrations of 157 and 314 µM.
The epimastigote forms of T. cruzi were cultivated at a density of 10^6 cells/mL in the presence of 11 (157 and 314 µM) for 24 h in a stove. Then, the cells were transferred to cytometry tubes, centrifuged at 4000 RPM for 5 min and washed twice with phosphate-buffered saline and binding buffer (pH 7.4; a compound of HEPES solution 10 mM; NaCl 140 mM; and CaCl2 2.5 mm). After the last centrifugation, the pellet was resuspended in 100 µL binding buffer, 5 µL 7-AAD (0.5 mg/mL), and 5 µL Ax/PE. The procedure was performed using a commercial kit (Annexin V PE Apoptosis Detection Kit I, BD Biosciences) and following the manufacturer’s guidelines. After 15 min of incubation in the dark, 400 µL of binding buffer was added to each tube, and the cells were analyzed on the FACSCalibur (BD Biosciences). For each tube, a minimum of 10^4 cells were analyzed to quantify the percentage of unlabeled cells and were either singly or double labeled with 7-AAD and Ax/PE. For this, an argon laser (488 nm) was used to excite the fluorochromes. Ax/PE-labeled cells were read by the FL2 detector (563 to 606 nm, yellow fluorescence), while 7-AAD-labeled cells were read at 615 to 645 nm wavelength (red fluorescence, FL3 detector).

[8] = system: epimastigote forms of T. cruzi; assay: Scanning electron microscopy of morphological changes; format: cell-based, Trypanosoma cruzi; details: 24 h of treatment, 157 µM
Method: In addition, scanning electron microscopy was used to analyze possible morphological alterations of epimastigote forms treated with compound 11. […] Similar results were obtained by treating epimastigote forms with pentyl p-coumarate.
To evaluate the changes induced by 11 in the ultrastructure of T. cruzi, the epimastigote forms were incubated with them for 24 h. After this period, the samples were centrifuged (5000 rpm; 10 min), the supernatant discarded, and the pellet resuspended in glutaraldehyde solution (2.5%) and incubated for 2 h. The fixed samples were again centrifuged and exposed to increasing concentrations of ethanol (30, 50, 70, 90, and 100%) for dehydration, followed by centrifugation (5000 rpm; 5 min). Finally, the cells were transferred to the surface of circular coverslips (15 mm) and dried in a CO2 oven. The coverslips were covered with a gold layer (20 nm thick) using the QT150 ES-Quorum Metallizer and analyzed in a Quanta 450 FEG-FEI scanning electron microscope to observe changes in the three-dimensional structure of the epimastigote forms of T. cruzi.

[9] = Trypanosoma cruzi, Y strain, 24 h

| SMILES | IC50 [1] [µM] | IC50 [2] [µM] | IC50 [3, 9] | Selectivity Index (SI) Epimastigote ([3]; ratio CC50 (LLC-MK2) / IC50 epimastigote) | IC50 [4, 9] | Selectivity Index (SI) Trypomastigote ([4]; ratio CC50 (LLC-MK2) / IC50 trypomastigote) | CC50 at 24 h [5] | toxicity on LLC-MK2 host cells (in words) (LLC-MK2 cells; highest concentration tested (200 μg/mL)) | selectivity for the parasite (SI) (LLC-MK2 cells; parasite form not specified, conclusions) | relative fluorescence DCFH-DA (cytoplasmic ROS) vs control [6] | accumulation of rhodamine 123 (mitochondrial transmembrane potential) vs control (T. cruzi epimastigotes) | apoptotic cells (7AAD−/AxPE+) vs control [7] | cells in late apoptosis (7AAD+/AxPE+) vs control [7] | percentage of necrotic cells (7AAD+/AxPE−) vs control [7] | percentage of viable cells (7AAD−/AxPE−) vs control [7] | ultrastructural alterations by scanning electron microscopy [8] |
| --- | --- | --- | --- | --- | --- | --- | --- | --- | --- | --- | --- | --- | --- | --- | --- | --- |
| CCCCCOC(=O)/C=C/c1ccc(O)cc1 [pentyl p-coumarate] | 5.16 | 61.6 |  |  |  |  |  |  |  |  |  |  |  |  |  |  |
| COc1cc(/C=C/C(=O)OCc2ccco2)cc(OC)c1OC [Compound 11, (E)-furan-2-ylmethyl 3-(3,4,5-trimethoxyphenyl)acrylate] |  |  | 8.98 µg/mL and 28.2 µM | >22.2 | 15 µg/mL and 47 µM | >13.4 | > 200 µg/mL and > 628 µM | did not show toxicity at the highest concentration tested | > 10 | increase in relative fluorescence | reduction in the accumulation of rhodamine | increase in apoptotic cells | increase in cells in late apoptosis | increase in the percentage of necrotic cells | reduction in the percentage of viable cells | pore formation and content leakage in the cytoplasm |
